Measurements published in patent publication US20140100248A1, “Novel Heterocyclic Compounds as Modulators of Sphingolipid Signaling and Uses Thereof” (UNIVERSITÄT BERN, priority 2011, published 2014).

Tests used:
[1] = tested on: colon cancer cell line HCT-116; experiment: colony formation assay; format: cell-based, human; details: HCT-116, 10 days of treatment
Procedure: Cells were seeded at a density of 700 cells per 60 mm-diameter dish in growth medium. After 24 h, cells were treated with either vehicle (Co) or the indicated concentrations (in μM) of FTY720, myriocin (myrio), ST-968, and ST-1071, and further cultured for 10 days at 37° C. Thereafter, colonies were stained and quantified as described in the Methods Section. […] Rat renal mesangial cells were isolated, characterized, and cultured as previously described (Pfeilschifter et al., 1984). For the experiments performed in this study, cells between passages 8-30 were used. The human endothelial cell line EA.hy 926 was cultured in RPMI medium containing 10% (v/v) fetal bovine serum, 10 mM Hepes, pH 7.4, 100 units/ml penicillin, and 100 μg/ml streptomycin. HCT-116 colon carcinoma cells were cultured in McCoy medium including 10% (v/v) fetal bovine serum, 100 units/ml penicillin, and 100 μg/ml streptomycin. Prior to stimulation, all cells were rendered quiescent for 24 h in DMEM including 0.1 mg/ml of fatty acid-free bovine serum albumin (BSA). Cells were subcultured in 60 mm-diameter dishes at a density of 700 cells per dish. After 24 h, cells were treated with the indicated concentrations of the different compounds in growth medium and incubated for further 10 days to allow colony formation. Cells were then washed with PBS, air dried, and stained for 30 min with 2% (w/v) crystal violet, washed with water and air dried again. The number of colonies was quantified using a ColCount™ (Mammalian Cell Colony Counter, Oxford Optronix, Oxford, U.K.). Only colonies containing more than 50 cells were evaluated.

[2] = tested on: p42/44-MAPK phosphorylation in renal mesangial cells; experiment: MAPK/ERK (p42/44) phosphorylation in renal mesangial cells, Western blot; format: cell-based, rat; details: for effect on ST-968-induced p42/44 activation: pretreatment with pertussis toxin 100 ng/ml 16 h, or VPC23019 10 μM or W146 10 μM 30 min, then ST-968 1 μM 10 min; for agonistic potential on S1P receptors: concluded from MAPK/ERK activation and antagonist experiments; for p42/44 phosphorylation (p42/44-MAPK activity): rat renal mesangial cells, stimulation for 10 min
Procedure: (A+B): Confluent mesangial cells were pretreated for 16 h with pertussis toxin (100 ng/ml), or for 30 min with vehicle (−), VPC23019 (10 μM) and W146 (10 μM) prior to stimulation for 10 min with either vehicle (Co) or ST-968 (1 μM). (C): Cells were stimulated for 10 min with either vehicle (Co) or the indicated concentrations (in μM) of S1P and ST-1071. Thereafter, cell lysates containing 30 μg of protein were separated by SDS-PAGE, transferred to nitrocellulose and subjected to Western blot analysis using antibodies against phospho-p42/44 (dilution of 1:1000; A, upper panel) and total p42/ERK2 and p44/ERK1 (dilution 1:6000 each; B, lower panel). Blots were stained by the ECL method according to the manufacturer's recommendation. Bands corresponding to the phospho-p42/44 and total ERKs were densitometrically scanned and evaluated (B). Results in B are depicted as % of ST-968 stimulation and are means ±S.D. (n=3).
(§1) Rat renal mesangial cells were isolated, characterized, and cultured as previously described (Pfeilschifter et al., 1984). For the experiments performed in this study, cells between passages 8-30 were used. The human endothelial cell line EA.hy 926 was cultured in RPMI medium containing 10% (v/v) fetal bovine serum, 10 mM Hepes, pH 7.4, 100 units/ml penicillin, and 100 μg/ml streptomycin. HCT-116 colon carcinoma cells were cultured in McCoy medium including 10% (v/v) fetal bovine serum, 100 units/ml penicillin, and 100 μg/ml streptomycin. Prior to stimulation, all cells were rendered quiescent for 24 h in DMEM including 0.1 mg/ml of fatty acid-free bovine serum albumin (BSA).
(§2) Confluent mesangial cells were stimulated as indicated in the figure legends in Dulbecco's modified Eagle medium (DMEM) supplemented with 0.1 mg/ml of fatty acid-free bovine serum albumin and 10 mM HEPES. After stimulation, the supernatant was taken for PGE2 or NO quantification and for detection of secreted IIA-sPLA2. The cell monolayers were homogenized in lysis buffer and processed exactly as previously described (Huwiler et al., 2006). Cell lysates were taken for protein determination. Lysates containing equal amounts of protein, were separated by sodium dodecylsulfate-polyacrylamide gel electrophoresis (SDS-PAGE), transferred to nitrocellulose membranes and subjected for Western blot analysis using antibodies as indicated in the figure legends. Bands were detected by enhanced chemiluminescence method as recommended by the manufacturer.

[3] = tested on: breast cancer cell lines (MCF-7, MDA-MB-231 and Sk-Br-3) and colon cancer cell lines (HCT-116 and SW620); details: cited from earlier work; for growth inhibition: Nagaoka et al. 2008, in the concentration tested
MCF-7 cells = details: Nagaoka et al. 2008; cited from earlier work
EA.hy 926 cells = experiment: serum-stimulated migration of endothelial cells, adapted Boyden chamber assay; format: cell-based, human; details: 10% serum, 6 h, at 3 μM and 10 μM
Procedure: Serum-starved EA. by 926 cells in 8 μM-polycarbonate inserts were treated for 6 h with 10% serum in the absence or presence of the indicated concentrations of ST-968 or ST-1071. Migrated cells were stained with DAPI and counted in a fluorescence microscop.
EA.hy 926 cells were cultured for 24 h under serum-free conditions. Chemotaxis was measured in Cell Culture Inserts (polycarbonate-coated membranes, […] pore size). The lower compartment was filled with serum-free DMEM and 1.7×10^5 cells were seeded per insert in the absence or presence of the indicated stimuli and inhibitors. After the indicated time periods, non-migrated cells were mechanically removed from the membrane and cells that had migrated into the membrane were fixed in 4% paraformaldehyde in PBS and stained with lug/ml of 4′,6-diamidino-2-phenylindole (DAPI). DAPI-stained cells were counted using a fluorescence microscope. Each data point is the average number of cells in five random fields and is the mean of four individual wells.

[4] = tested on: nitric oxide (NO) formation; experiment: cytokine-triggered nitric oxide release from renal mesangial cells, Griess reagent; format: cell-based, rat; details: IL-1β 1 nM plus forskolin 10 μM, 24 h
Procedure: Cells were treated for 24 h with either vehicle (−) or with interleukin 1 β (1 nM) plus forskolin (10 μM) (IL-1/Fk, +) in the absence or presence of the indicated concentrations of ST-968 (in μM), or betamethasone (in nM). Thereafter, supernatants were collected and nitrite was quantified by using the Griess reagent.
Quiescent mesangial cells in 24-well plates were stimulated as indicated, and the supernatants were taken for nitrite determination using Griess reagent as described (Green et al., 1982).

[5] = tested on: p42/44-MAPK phosphorylation in EA.hy 926 cells; experiment: MAPK/ERK phosphorylation in the endothelial cell line EA.hy 926, Western blot; format: cell-based, human; details: 1 μM
Procedure: Confluent EA.hy 926 cells were treated either for 10 min (left side) or for 4 h (right side) with either vehicle (Co), S1P (1 μM), or ST-968 (1 μM). Thereafter, cell lysates containing 30 μg of protein were separated by SDS-PAGE, transferred to nitrocellulose and subjected to Western blot analysis using antibodies against phospho-ERK½ (dilution of 1:1000; A, upper panel), and total p42/ERK2 and p44/ERK1(dilutions each 1:6000; B, lower panel). Blots were stained by the ECL method according to the manufacturer's recommendation. Bands corresponding to the phospho-ERKs were densitometrically evaluated and results are depicted as % of control and are means ±S.D. ([…]).
as §1
as §2, with “Lysates containing equal amounts of protein, were separated by sodium dodecylsulfate-polyacrylamide gel electrophoresis (SDS-PAGE), transferred to nitrocellulose membranes and subjected for Western blot analysis using antibodies as indicated in the figure legends.” left out

[6] = tested on: secretory phospholipase A2 (sPLA2) expression; experiment: cytokine-triggered secretory phospholipase A2 expression in renal mesangial cells, Western blot; format: cell-based, rat; details: IL-1β 1 nM plus forskolin 10 μM, 24 h, increasing doses of ST-968
Procedure: Cells were treated for 24 h with either vehicle (−, 0) or with interleukin 1 β (1 nM) plus forskolin (10 μM) (IL-1/Fk, +) in the absence (0) or presence of the indicated concentrations of ST-968. Thereafter, supernatants were collected and equal volumes were taken for protein precipitation using trichloroacetic acid. Equal aliquots were separated by SDS-PAGE, transferred to nitrocellulose and subjected to Western blot analysis using a monoclonal antibody against rat sPLA2 at a dilution of 1:60. Blots were stained by the ECL method according to the manufacturer's recommendation. Data are representative of two independent experiments giving similar results.
as §2, with “Lysates containing equal amounts of protein, were separated by sodium dodecylsulfate-polyacrylamide gel electrophoresis (SDS-PAGE), transferred to nitrocellulose membranes and subjected for Western blot analysis using antibodies as indicated in the figure legends.” left out, “manufacturer. […]” for “manufacturer.”

CCCCCCC(=O)CCCCCC/C=C/C[C@@H](O)[C@H](O)[C@@](N)(CO)C(=O)O [myriocin, reference compound]
colony formation [1]: had no effect

pertussis toxin [reference compound]
effect on ST-968-induced p42/44 activation [2]: only partially blocked

CCCCCCCCc1ccc(CC[C@](N)(CO)COP(=O)(O)O)cc1 [FTY720-P, FTY720-1-phosphate]
growth inhibition [3]: did not inhibit the growth
growth of MCF-7 cells (MCF-7 cells): slightly induced the growth

CCCCCCCOc1ccc(CCC23COCN2COC3)cc1 [ST-1071, 7a-(4-(Heptyloxy)Phenethyl)Tetrahydro-1H-Oxazolo[3,4-c]Oxazole]
colony formation [1]: strongly reduced colony formation
colony formation ([1]; listed as ST 1071): inhibited and/or reduced the colony formation
agonistic potential on S1P receptors [2]: have agonistic potential on one or several of the S1P receptors
agonistic potential on S1P receptors ([2]; listed as ST1071): exhibited agonistic potential for one or several of the S1P receptor subtypes
p42/44 phosphorylation (p42/44-MAPK activity) [2]: stimulated p42/44 phosphorylation after 10 min in a concentration-dependent manner
potency on p42/44 phosphorylation compared with S1P ([2]; renal mesangial cells, 10 min): less potent than S1P
serum-stimulated migration (EA.hy 926 cells): able to reduce serum-stimulated migration

CCCCCCCCc1ccc(CCC(N)(CO)CO)cc1.Cl [FTY720, 2-Amino-2[2-(4-octylphenyl)ethyl]propane-1,3-diol, reference compound]
growth inhibition [3]: significant growth inhibition
colony formation [1]: completely abolished colony formation

CCCCCCCCc1cccc(NC(=O)[C@H](N)COP(=O)(O)O)c1 [VPC23019, reference compound]
effect on ST-968-induced p42/44 activation [2]: completely abolished

CCCCCCCCCCCCC/C=C/[C@@H](O)[C@@H](N)CO [sphingosine]
growth inhibition [3]: significant growth inhibition

CCCCCCCCc1ccc(CCC23COCN2COC3)cc1 [ST-968, 7a-(4-Octylphenethyl)Tetrahydro-1H-Oxazolo[3,4-c]Oxazole]
colony formation [1]: strongly reduced colony formation
colony formation ([1]; listed as ST 968): inhibited and/or reduced the colony formation
IL-1β/forskolin induced NO formation [4]: dose-dependently reduced
agonistic potential on S1P receptors [2]: have agonistic potential on one or several of the S1P receptors
agonistic potential on S1P receptors ([2]; listed as ST 968): exhibited agonistic potential for one or several of the S1P receptor subtypes
p42/44 phosphorylation (p42/44-MAPK activity) [2]: increased p42/44 phosphorylation
activation of the p42/44-MAPK cascade [5]: could activate the p42/44-MAPK cascade
p42/44 phosphorylation, ST-968 compared with S1P ([5]; 4 h of stimulation): more potently increasing p42/44 phosphorylation than S1P
serum-stimulated migration (EA.hy 926 cells): able to reduce serum-stimulated migration
sPLA2 expression [6]: reduced

CCCCCCCCCCCCC/C=C/[C@@H](O)[C@H](CO)N(C)C [dimethylsphingosine]
effect of the combination on the inhibitory effect of FTY720 ([3]; combined with FTY720, Nagaoka et al. 2008): augmented the inhibitory effect of FTY720

CCCCCCc1cccc(NC(=O)[C@H](N)CCP(=O)(O)O)c1 [W146, (R)-3-amino-(3-hexylphenylamino)-4-oxobutylphosphonic acid, reference compound]
effect on ST-968-induced p42/44 activation [2]: had no effect

CCCCCCCCCCCCC/C=C/[C@@H](O)[C@@H](N)COP(=O)(O)O [S1P, sphingosine-1-phosphate]
growth inhibition [3]: did not inhibit the growth
p42/44 phosphorylation, S1P compared with ST-968 ([5]; 10 min of stimulation): more potent to increase p42/44 phosphorylation than ST-968
growth of MCF-7 cells (MCF-7 cells): slightly induced the growth
